Source: paper PMC9266004, “Potential Common Mechanisms of Cytotoxicity Induced by Amide Herbicides via TRPA1 Channel Activation” (International Journal of Environmental Research and Public …, 2022)
Like-named read-outs stand apart in the source and are kept apart here.

Columns and labels:
A549 cells [1] = test: CCK-8 cell viability assay in WT A549 cells; format: cell-based, human; details: for viability of A549 cells compared with 0 μM AHs: 150, 300, 600, 1200 μM, 24 h; for viability of A549 cells compared with 0 μM AHs / IC50: CCK-8; for viability with HC-030031 pre-treatment compared with AHs treatment alone: A549 cells, HC-030031 50 μM, AHs 150, 300, 600 μM
Experimental: (§1) Wild-type (WT) and TRPA1-KO A549 cells were cultured in McCoy’s 5A Media and F-12K Nutrient Mixture containing 10% fetal bovine serum, respectively. WT/TRPA1-KO A549 cells (5 × 10^4 cells/mL) were seeded in 96-well (100 μL/well) and 6-well (2 mL/well) plates and incubated at 37 °C with 5% CO2 in a humidified incubator for 24 h. WT/TRPA1-KO A549 cells were treated with AHs gradient concentrations (0, 150, 300, 600, 1200 μM) prepared in methanol (1.2 M) for 24 h. […]
(§2) To conduct the cell viability assay, the growth medium was removed from WT/TRPA1-KO A549 cells cultured in a 96-well plate. CCK-8 reagent was mixed with complete medium (1:9 volume ratio), and 100 µL of the CCK-8 reagent mixture was added to each well. The plate was incubated for 4 h and the absorbance was measured at 450 nm using a microplate reader (BNR05740; Molecular Devices, Sunnyvale, CA, USA). The average absorbance from each sextuplicate set of wells was calculated and the background control value was subtracted from each absorbance value. The percentage cell viability was determined using the following equation:cell viability (%) = [(As − Ab)/(Ac − Ab)] × 100% where As is the absorbance of the experimental well (containing medium, CCK-8 reagent, cells, and compound); Ac is the absorbance of the control well (containing medium, CCK-8 reagent, and cells); and Ab is the absorbance of the blank well (containing medium and CCK-8 reagent).

TRPA1-KO A549 cells = test: CCK-8 cell viability assay in TRPA1-KO A549 cells; format: cell-based, human; details: for IC50: Homo sapiens, TRPA1-KO A549 cells, 24 h treatment, CCK-8, read-out: IC50 values of AHs, TRPA1-KO A549 Cells; for viability of TRPA1-KO A549 cells compared with AHs-treated WT cells: KO of TRPA1, AHs 150, 300, 600 μM
Experimental: (§3) The hTRPA1 gene sequence (Gene ID: 8989) was obtained from the National Center for Biotechnology Information (NCBI) website (https://www.ncbi.nlm.nih.gov/gene/8989 accessed on 26 May 2022). Three gRNA sequences, namely, T1: 5′-[…]-[…], T16: 5′-[…]-3′, and T20: 5′-[…]-3′, were designed using the CRISPR online design tool (http://crispr.mit.edu/ accessed on 26 May 2022). Transfection of cells with gRNA-Cas9 was validated in test cells. Cell pool examination was performed using Sanger sequencing. Sequencing and tracer analysis were performed using the online tool TIDE (https://tide-calculator.nki.nl/ accessed on 26 May 2022) to investigate the cleavage efficiency of T1, T16, and T20. Cells from the cell pool were diluted in 96-well plates. Clones were observed under a microscope and wells containing single cell clones were labeled. Single cell clones were transferred to 24-well plates for expansion. Validation of knockout (KO) clones was performed via sequencing to confirm insertion and deletion on the genomes of KO clone candidates. Furthermore, mycoplasmas were detected for cloned cells with high KO using the Mycoplasma PCR Detection Kit.
(§4) Wild-type (WT) and TRPA1-KO A549 cells were cultured in McCoy’s 5A Media and F-12K Nutrient Mixture containing 10% fetal bovine serum, respectively. WT/TRPA1-KO A549 cells (5 × 10^4 cells/mL) were seeded in 96-well (100 μL/well) and 6-well (2 mL/well) plates and incubated at 37 °C with 5% CO2 in a humidified incubator for 24 h. WT/TRPA1-KO A549 cells were treated with AHs gradient concentrations (0, 150, 300, 600, 1200 μM) prepared in methanol (1.2 M) for 24 h. Additionally, WT/TRPA1-KO A549 cells were pre-treated with TRPA1 special inhibitor HC-030031 (100 μM) for 0.5 h and then treated with AHs gradient concentrations for 24 h.
as §2

[2] = target: hTRPA1 ARD recombinant protein (Homo sapiens, UniProt O75762); test: LSPR binding analysis (OpenSPR, COOH chip); details: at the analyte concentrations tested (up to 1000-2000 μM)
Experimental: The binding capacity of hTRPA1 ARD recombinant protein and AHs was determined by LSPR according to the OpenSPR (Nicoya Life Sciences, Kitchener, ON, Canada) operating procedure using the COOH chip. After the baseline signal was obtained, the sample was washed with 200 µL 80% isopropyl alcohol for 10 s, and 200 µL ethylcarbodiimide/N-hydroxysuccinimide solution was added. The sample loop was rinsed with phosphate-buffered saline (PBS). hTRPA1 (5 µL) was diluted with PBS, incubated for 4 min, and 200 µL blocking solution was added. […] Contact and dissociation time of analytes and protein were 240 s and 160 s, respectively. TraceDrawer software was applied to determine the association constant (ka), dissociation constant (kd), and affinity constant (KD) using a 1:1 model.

TRPA1 mRNA in A549 cells = test: RT-qPCR of TRPA1 mRNA; format: cell-based, human; details: for TRPA1 mRNA expression with HC-030031 pre-treatment compared with AHs treatment alone: HC-030031 50 μM, AHs 150, 300, 600 μM; for expression of TRPA1 mRNA compared with 0 μM AHs: significant at one or more of 150, 300, 600 μM
Experimental: as §1
TRIzol Reagent (1 mL) was directly added to WT/TRPA1-KO A549 cells in 6-well plates and total RNA was extracted according to the manufacturer’s instructions. Total RNA was used for cDNA reverse transcription, which was performed according to the PrimeScript RT protocol with the following reaction conditions: 42 °C for 2 min, 4 °C for ∞ (removal of genomic DNA), 37 °C for 15 min, 85 °C for 5 s, and 4 °C for ∞ (reverse transcriptional reaction). RT-qPCR was performed according to the TB Green Premix Ex Taq II protocol. Primer sequences and product lengths were as follows: hTRPA1 (107 bp) forward primer 5′-[…]-3′, reverse primer 5′-[…]-3′; hβ-actin (184 bp) forward primer 5′-[…]-3′, reverse primer 5′-[…]-3′. RT-qPCR was performed using the CFX96 Real-Time System (Bio-Rad Laboratories, Hercules, CA, USA) using the following reaction conditions: 95 °C for 30 s, 40 cycles of 95 °C for 5 s, 60 °C for 30 s, and 72 °C for 30 s, followed by a melting curve from 65 to 95 °C in 0.5 °C/5 s increments. Calculations were performed using the CFX Manager^TM Version 1.0 software (Bio-Rad Laboratories Ltd., Hercules, CA, USA) and are represented as fold change in expression [2^ΔΔC(t)] on a linear scale.

[3] = system: calcium influx in A549 cells; test: Cellular calcium imaging (Fluo-4) in WT A549 cells; format: cell-based, human; details: for calcium influx compared with 0 μM AHs: A549 cells, 150, 300, 600, 1200 μM; for calcium influx with HC-030031 pre-treatment compared with AHs treatment alone: A549 cells, HC-030031 50 μM, AHs 150-1200 μM
Experimental: as §1
(§5) Working solution was prepared according to the instructions of the Fluo-4 Direct calcium assay kit and directly added to WT/TRPA1-KO A549 cells in 96-well plates, which were incubated for 0.5 h and kept away from light after removal from the incubator. Single channel fluorescein isothiocyanate (FITC) levels were measured using a confocal high-content imaging system (IXM-C S150069, Molecular Devices, San Jose, CA, USA).

[4] = system: calcium influx in TRPA1-KO A549 cells; test: Cellular calcium imaging (Fluo-4) in TRPA1-KO A549 cells; format: cell-based, human; details: AHs 150-1200 μM
Experimental: as §3, §4, §5

A549 cells [5] = test: LDH cytotoxicity assay; format: cell-based, human
Experimental: as §4
Using the Cytotoxicity LDH Assay Kit, lysis buffer (10 μL) was added to the high control well of a 96-well plate containing WT/TRPA1-KO A549 cells, which was then incubated for 0.5 h. Working solution was prepared by adding 5 mL assay buffer to the dye mixture vial, of which 100 μL was added to each well. The plate was protected from light and incubated at room temperature for 0.5 h. Subsequently, 50 μL stop solution was added to each well and the absorbance was measured immediately at 490 nm using a microplate reader (BNR05740, Molecular Devices). The average absorbance was calculated from each sextuplicate set of wells and the background control value was subtracted from each absorbance value. The percentage cytotoxicity was determined using the following equation:cytotoxicity (%) = [(Aa − Ab1)/(Ab2 − Ab1)] × 100% where Aa is the absorbance of the experimental well (containing medium, cells, and compound); Ab2 is the absorbance of the high control well (containing medium, cells, and lysis buffer); and Ab1 is the absorbance of the low control well (containing medium and cells).

[6] = Homo sapiens, WT A549 cells, 24 h treatment, read-out: IC50 values of AHs, A549 Cells
[7] = WT A549 cells pre-treated with HC-030031 50 μM, then AHs 24 h, read-out: IC50 values of AHs, A549 Cells + HC-030031 50 μM

Chain of hTRPA1 ARD recombinant protein (O75762 62-609): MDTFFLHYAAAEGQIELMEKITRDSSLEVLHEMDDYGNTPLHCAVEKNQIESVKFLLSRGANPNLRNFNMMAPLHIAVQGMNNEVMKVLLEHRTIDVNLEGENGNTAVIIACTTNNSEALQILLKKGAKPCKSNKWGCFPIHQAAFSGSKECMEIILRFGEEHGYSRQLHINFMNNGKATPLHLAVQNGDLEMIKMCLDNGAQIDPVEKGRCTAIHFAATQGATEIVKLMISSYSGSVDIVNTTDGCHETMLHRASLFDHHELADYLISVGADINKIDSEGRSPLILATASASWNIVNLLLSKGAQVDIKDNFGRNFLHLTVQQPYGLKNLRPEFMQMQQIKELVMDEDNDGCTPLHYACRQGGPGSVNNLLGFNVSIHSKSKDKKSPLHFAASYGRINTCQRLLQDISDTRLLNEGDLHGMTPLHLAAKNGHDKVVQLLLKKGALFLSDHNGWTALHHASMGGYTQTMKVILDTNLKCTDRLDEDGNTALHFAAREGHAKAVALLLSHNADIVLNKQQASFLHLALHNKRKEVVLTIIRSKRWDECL

SMILES	viability of A549 cells compared with 0 μM AHs (A549 cells [1])	viability with HC-030031 pre-treatment compared with AHs treatment alone (A549 cells [1])	IC50 (A549 cells [1]; [6])	IC50 (A549 cells [1]; [7])	IC50 (TRPA1-KO A549 cells)	viability of TRPA1-KO A549 cells compared with AHs-treated WT cells (TRPA1-KO A549 cells)	binding between hTRPA1 and AHs (LSPR) [2]	TRPA1 mRNA expression with HC-030031 pre-treatment compared with AHs treatment alone (TRPA1 mRNA in A549 cells)	expression of TRPA1 mRNA compared with 0 μM AHs (TRPA1 mRNA in A549 cells)	calcium influx compared with 0 μM AHs [3]	calcium influx with HC-030031 pre-treatment compared with AHs treatment alone [3]	calcium influx with KO of TRPA1 compared with AHs-treated WT cells [4]	cell damage (LDH) compared with 0 μM AHs (A549 cells [5]; 150, 300, 600, 1200 μM, 24 h)	cell damage (LDH) compared with 0 μM AHs (A549 cells [5])
CCOCN(C(=O)CCl)c1c(C)cccc1CC [Acetochlor, acetochlor]	significantly decreased	significantly increased viability	524 µM	647 µM	696 µM	significantly increased the viability	Obvious binding was not detected	significantly reduced	significantly increased	significantly increased	significantly decreased calcium influx	significantly decreased calcium influx	–	–
CCc1cccc(CC)c1N(COC)C(=O)CCl [Alachlor, alachlor]	significantly decreased	significantly increased viability	565 µM	731 µM	659 µM	significantly increased the viability	Obvious binding was not detected	significantly reduced	significantly increased	significantly increased	significantly decreased calcium influx	significantly decreased calcium influx	significantly increased cell damage	–
CCCCOCN(C(=O)CCl)c1c(CC)cccc1CC [Butachlor, butachlor]	significantly decreased	significantly increased viability	619 µM	1760 µM	767 µM	significantly increased the viability	Obvious binding was not detected	significantly reduced	significantly increased	significantly increased	significantly decreased calcium influx	significantly decreased calcium influx	–	significantly increased cell damage
CCc1cccc(C)c1N(COC(C)C)C(=O)CCl [Propisochlor, propisochlor]	significantly decreased	albeit not significantly	564 µM	1690 µM	1830 µM	significantly increased the viability	Obvious binding was not detected	albeit not significantly	significantly increased	significantly increased	significantly decreased calcium influx	significantly decreased calcium influx	significantly increased cell damage	–
